Laboratory results published in patent publication US20110172147A1, “NEUROPEPTIDE-2 RECEPTOR (Y-2R) AGONISTS” (priority 2009, published 2011).

Assays:
Assay type in all cases: cell-based
Y1R = molecular target: T1, Y1R (Homo sapiens, UniProt P25929); experiment: CaFlux Assay (FLIPR), Y1R
T1 sequence (P25929 1-384): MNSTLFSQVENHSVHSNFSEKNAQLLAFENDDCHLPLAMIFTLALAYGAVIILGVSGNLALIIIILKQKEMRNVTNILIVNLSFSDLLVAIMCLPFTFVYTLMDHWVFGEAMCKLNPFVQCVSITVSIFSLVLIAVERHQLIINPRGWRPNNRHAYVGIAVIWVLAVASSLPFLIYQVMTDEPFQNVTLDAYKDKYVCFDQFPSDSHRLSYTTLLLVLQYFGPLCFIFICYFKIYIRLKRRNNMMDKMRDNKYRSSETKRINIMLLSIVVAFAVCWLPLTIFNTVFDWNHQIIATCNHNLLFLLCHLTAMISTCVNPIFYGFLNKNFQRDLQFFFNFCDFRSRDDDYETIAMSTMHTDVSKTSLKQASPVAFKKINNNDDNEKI

Y4R = Y4R (Homo sapiens, UniProt P50391); experiment: CaFlux Assay (FLIPR), Y4R
Sequence of Y4R (P50391 whole entry): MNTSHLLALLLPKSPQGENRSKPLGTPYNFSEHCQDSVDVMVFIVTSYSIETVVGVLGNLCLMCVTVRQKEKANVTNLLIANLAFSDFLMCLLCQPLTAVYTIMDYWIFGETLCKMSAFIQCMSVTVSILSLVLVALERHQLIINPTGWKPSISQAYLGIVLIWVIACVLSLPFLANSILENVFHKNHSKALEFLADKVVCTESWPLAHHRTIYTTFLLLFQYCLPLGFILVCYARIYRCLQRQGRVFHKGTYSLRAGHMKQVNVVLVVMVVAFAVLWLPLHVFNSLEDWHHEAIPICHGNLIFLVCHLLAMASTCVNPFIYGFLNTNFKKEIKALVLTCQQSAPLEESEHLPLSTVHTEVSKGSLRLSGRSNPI

Y5R = molecular target: T2, Y5R (Homo sapiens, UniProt Q15761); experiment: CaFlux Assay (FLIPR), Y5R
T2 sequence (Q15761 1-445): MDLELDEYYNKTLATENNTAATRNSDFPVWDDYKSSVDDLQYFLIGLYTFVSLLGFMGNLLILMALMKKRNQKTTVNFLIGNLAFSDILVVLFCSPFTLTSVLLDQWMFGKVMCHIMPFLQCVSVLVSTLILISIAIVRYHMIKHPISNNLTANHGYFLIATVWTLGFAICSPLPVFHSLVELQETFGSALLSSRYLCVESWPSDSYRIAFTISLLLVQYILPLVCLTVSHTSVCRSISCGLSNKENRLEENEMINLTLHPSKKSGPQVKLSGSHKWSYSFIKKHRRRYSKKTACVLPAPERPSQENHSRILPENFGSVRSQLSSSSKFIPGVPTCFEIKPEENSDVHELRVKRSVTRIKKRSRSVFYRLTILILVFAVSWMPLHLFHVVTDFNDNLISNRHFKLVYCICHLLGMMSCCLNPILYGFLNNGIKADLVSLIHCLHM

hNPY2R [1] = molecular target: T3, hNPY2R (Homo sapiens, UniProt P49146); experiment: cAMP Agonist Assay, HEK293/hNPY2R; set-up: expressed in transfected cells; host or cells: HEK293/hNPY2R (G418 selection)
T3 sequence (P49146 1-381): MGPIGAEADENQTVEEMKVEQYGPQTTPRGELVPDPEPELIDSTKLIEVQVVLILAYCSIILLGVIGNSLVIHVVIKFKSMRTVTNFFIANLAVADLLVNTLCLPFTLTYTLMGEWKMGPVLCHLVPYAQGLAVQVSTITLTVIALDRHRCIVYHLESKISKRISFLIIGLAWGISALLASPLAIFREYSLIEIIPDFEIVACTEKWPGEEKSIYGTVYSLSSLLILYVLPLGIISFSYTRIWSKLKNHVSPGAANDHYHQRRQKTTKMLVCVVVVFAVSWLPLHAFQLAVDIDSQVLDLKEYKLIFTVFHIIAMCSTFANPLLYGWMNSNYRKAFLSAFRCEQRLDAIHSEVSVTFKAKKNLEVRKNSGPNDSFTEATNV
Method in brief: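 HEK293/hNPY2R cells (10,000/well, overnight) stimulated 30 min at room temperature with compound plus 5 μM forskolin and 0.5 mM IBMX (1.1% DMSO final). Lysate cAMP measured by competitive chemiluminescent ELISA (AP conjugate, CSPD substrate); quadruplicates.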

hNPY2R [2] = molecular target: T3, hNPY2R; experiment: CaFlux Assay (FLIPR), Y2R; set-up: expressed in transfected cells; host or cells: HEK-293 stably transfected with G protein chimera Gαqi9
Method in brief: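 Intracellular calcium mobilisation was measured in HEK-293 cells engineered with Gαqi9 and the relevant receptor; responses were normalised as % of maximal positive-control signal.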

SMILES	EC50 (Y1R)	EC50 (Y4R)	EC50 (Y5R)	EC50 (hNPY2R [1])	EC50 (hNPY2R [2])	Y5R FLIPR agonist character (partial agonist mark) (Y5R; FLIPR)
CC[C@H](C)[C@H](NC(=O)CCCCCNC(=O)CCOCCOCCOCCOCCOCCOCCOCCOC)C(=O)N[C@@H](CCCCN)C(=O)N1CCN(c2ccc3ncn(CC(=O)N[C@@H](CCCNC(=N)N)C(=O)N[C@@H](Cc4c[nH]cn4)C(=O)N[C@@H](Cc4ccc(O)cc4)C(=O)N[C@@H](CC(C)C)C(=O)N[C@@H](CC(N)=O)C(=O)N[C@@H](Cc4c[nH]c5ccccc45)C(=O)N[C@H](C(=O)N[C@H](C(=O)N[C@@H](CCCNC(=N)N)C(=O)N[C@@H](CCC(N)=O)C(=O)N(C)[C@@H](CCCNC(=N)N)C(=O)N[C@@H](Cc4ccc(O)cc4)C(N)=O)[C@@H](C)O)C(C)C)c(=O)c3c2)CC1 [Example 17]	> 6 µM	> 6 µM	> 6000 nM	1.4 nM	0.479 nM	
CCCCCCCCCCCCCCCCCCCC(=O)N[C@@H](CCC(=O)N[C@@H](CCC(=O)NCCCC[C@H](NC(=O)[C@@H](NC(=O)COCCOCCOC)[C@@H](C)CC)C(=O)N1CCN(c2ccc3ncn(CC(=O)N[C@@H](CCCNC(=N)N)C(=O)N[C@@H](Cc4c[nH]cn4)C(=O)N[C@@H](Cc4ccc(O)cc4)C(=O)N[C@@H](CC(C)C)C(=O)N[C@@H](CC(N)=O)C(=O)N[C@@H](Cc4c[nH]c5ccccc45)C(=O)N[C@H](C(=O)N[C@H](C(=O)N[C@@H](CCCNC(=N)N)C(=O)N[C@@H](CCC(N)=O)C(=O)N(C)[C@@H](CCCNC(=N)N)C(=O)N[C@@H](Cc4ccc(O)cc4)C(N)=O)[C@@H](C)O)C(C)C)c(=O)c3c2)CC1)C(=O)O)C(=O)O [Example 22]	> 6 µM	> 6 µM	1510 nM	0.065 nM	0.298 nM	
CCCCCCCCCCCCCCCC(=O)NCCOCCNC(=O)CCC(=O)NCCCC[C@H](NC(=O)[C@@H](NC(=O)COCCOCCOCCOCCOCCOC)[C@@H](C)CC)C(=O)N1CCN(c2ccc3ncn(CC(=O)N[C@@H](CCCNC(=N)N)C(=O)N[C@@H](Cc4c[nH]cn4)C(=O)N[C@@H](Cc4ccc(O)cc4)C(=O)N[C@@H](CC(C)C)C(=O)N[C@@H](CC(N)=O)C(=O)N[C@@H](Cc4c[nH]c5ccccc45)C(=O)N[C@H](C(=O)N[C@H](C(=O)N[C@@H](CCCNC(=N)N)C(=O)N[C@@H](CCC(N)=O)C(=O)N(C)[C@@H](CCCNC(=N)N)C(=O)N[C@@H](Cc4ccc(O)cc4)C(N)=O)[C@@H](C)O)C(C)C)c(=O)c3c2)CC1 [Example 12]	> 5 µM	> 5 µM	527 nM	0.09 nM	0.097 nM	
CCCCCCCCCCCCCCCCCCCC(=O)N[C@@H](CCC(=O)O)C(=O)N[C@@H](CCC(=O)O)C(=O)N[C@H](C(=O)N[C@@H](CCCCNC(=O)CCOCCOCCOCCOCCOCCOCCOCCOCCOCCOCCOCCOCCOCCOCCOCCOC)C(=O)N1CCN(c2ccc3ncn(CC(=O)N[C@@H](CCCNC(=N)N)C(=O)N[C@@H](Cc4c[nH]cn4)C(=O)N[C@@H](Cc4ccc(O)cc4)C(=O)N[C@@H](Cc4c[nH]cn4)C(=O)N[C@@H](CC(N)=O)C(=O)N[C@@H](Cc4c[nH]c5ccccc45)C(=O)N[C@H](C(=O)N[C@H](C(=O)N[C@@H](CCCNC(=N)N)C(=O)N[C@@H](CCC(N)=O)C(=O)N[C@@H](CCCNC(=N)N)C(=O)N[C@@H](Cc4ccc(O)cc4)C(N)=O)[C@@H](C)O)C(C)C)c(=O)c3c2)CC1)[C@@H](C)CC [Example 56]	> 6 µM	> 6 µM	8.73 nM	0.013 nM	0.098 nM	
CCCCCCCCCCCCCCCCCCCC(=O)N[C@@H](CCC(=O)O)C(=O)N[C@@H](CCC(=O)O)C(=O)N[C@H](C(=O)N[C@@H](CCCCNC(=O)CCOCCOCCOCCOCCOCCOCCOCCOCCOCCOCCOCCOC)C(=O)N1CCN(c2ccc3ncn(CC(=O)N[C@@H](CCCNC(=N)N)C(=O)N[C@@H](Cc4c[nH]cn4)C(=O)N[C@@H](Cc4ccc(O)cc4)C(=O)N[C@@H](CC(C)C)C(=O)N[C@@H](CC(N)=O)C(=O)N[C@@H](Cc4c[nH]c5ccccc45)C(=O)N[C@H](C(=O)N[C@H](C(=O)N[C@@H](CCCNC(=N)N)C(=O)N[C@@H](CCC(N)=O)C(=O)N(C)[C@@H](CCCNC(=N)N)C(=O)N[C@@H](Cc4ccc(O)cc4)C(N)=O)[C@@H](C)O)C(C)C)c(=O)c3c2)CC1)[C@@H](C)CC [Example 46]	> 9 µM	> 9 µM	4580 nM	0.29 nM	0.214 nM	
CCCCCCCCCCCCCCCCCCCC(=O)N[C@@H](CCC(=O)O)C(=O)N[C@@H](CCC(=O)O)C(=O)N[C@H](C(=O)N[C@@H](CCCCNC(=O)CCOCCOCCOCCOCCOCCOCCOCCOCCOCCOCCOCCOCCOCCOCCOCCOC)C(=O)N1CCN(c2ccc3ncn(CC(=O)N[C@@H](CCCNC(=N)N)C(=O)N[C@@H](Cc4c[nH]cn4)C(=O)N[C@@H](Cc4ccc(O)cc4)C(=O)N[C@@H](CC(C)C)C(=O)N[C@@H](CC(N)=O)C(=O)N[C@@H](Cc4c[nH]c5ccccc45)C(=O)N[C@H](C(=O)N[C@H](C(=O)N[C@@H](CCCNC(=N)N)C(=O)N[C@@H](CCC(N)=O)C(=O)N(C)[C@@H](CCCNC(=N)N)C(=O)N[C@@H](Cc4ccc(O)cc4)C(N)=O)[C@@H](C)O)C(C)C)c(=O)c3c2)CC1)[C@@H](C)CC [Example 48]	> 9 µM	> 9 µM	4320 nM	0.52 nM	0.388 nM	
CCCCCCCCCCCCCC(=O)NCCCCCC(=O)N[C@H](C(=O)N[C@@H](CCCCNC(=O)CCOCCOCCOCCOCCOCCOCCOCCOCCOCCOCCOCCOCCOCCOCCOCCOCCOCCOCCOCCOCCOCCOCCOCCOC)C(=O)N1CCN(c2ccc3ncn(CC(=O)N[C@@H](CCCNC(N)=O)C(=O)N[C@@H](Cc4c[nH]cn4)C(=O)N[C@@H](Cc4ccc(O)cc4)C(=O)N[C@@H](CC(C)C)C(=O)N[C@@H](CC(N)=O)C(=O)N[C@@H](Cc4c[nH]c5ccccc45)C(=O)N[C@H](C(=O)N[C@H](C(=O)N[C@@H](CCCNC(=N)N)C(=O)N[C@@H](CCC(N)=O)C(=O)N(C)[C@@H](CCCNC(=N)N)C(=O)N[C@@H](Cc4ccc(O)cc4)C(N)=O)[C@@H](C)O)C(C)C)c(=O)c3c2)CC1)[C@@H](C)CC [Example 37]	> 6 µM	> 6 µM	4260 nM	2.8 nM	0.158 nM	
CCCCCCCCCCCCCCCCCCCC(=O)N[C@@H](CCC(=O)N[C@@H](CCC(=O)NCCCC[C@H](NC(=O)[C@@H](NC(=O)CCOCCOCCOCCOCCOCCOCCOCCOCCOCCOCCOCCOCCOCCOCCOCCOC)[C@@H](C)CC)C(=O)N1CCN(c2ccc3ncn(CC(=O)N[C@@H](CCCNC(=N)N)C(=O)N[C@@H](Cc4c[nH]cn4)C(=O)N[C@@H](Cc4ccc(O)cc4)C(=O)N[C@@H](CC(C)C)C(=O)N[C@@H](CC(N)=O)C(=O)N[C@@H](Cc4c[nH]c5ccccc45)C(=O)N[C@H](C(=O)N[C@H](C(=O)N[C@@H](CCCNC(=N)N)C(=O)N[C@@H](CCC(N)=O)C(=O)N(C)[C@@H](CCCNC(=N)N)C(=O)N[C@@H](Cc4ccc(O)cc4)C(N)=O)[C@@H](C)O)C(C)C)c(=O)c3c2)CC1)C(=O)O)C(=O)O [Example 25]	> 9 µM	> 9 µM	2580 nM	0.09 nM	0.14 nM	P.A
